Common to all, as to type: cell-based
Assay [1] concerns pcDNA3.0-neo brain CSCs ^CD133+. Kind of assay: Wound healing assay with pcDNA3.0-neo brain CSCs CD133+. As to conditions: without Axl overexpression; BP 0, 25, 50, 62.5, 75 and 100 µg/ml for 24 hours; Figure 14C. The procedure:
In this research, to further investigate whether the capability of BP in inhibiting the metastasis of cancer stem cells is related to Axl, brain CSCs ^CD133+ was transfected with pcDNA3.0-Axl plasmid and pcDNA3.0-neo plasmid respectively by using Lipofectmine 2000 transfection reagent. Then, the transfected brain CSCs ^CD133+ and un-transfected brain CSCs ^CD133+ were selected by 200 to 600 µg/ml G418 at the same time to obtain brain CSCs ^CD133+ having pcDNA3.0-Axl plasmid (hereinafter referred to as "pcDNA 3.0-Axl brain CSCs ^CD133+") or brain CSCs ^CD133+ having pcDNA3.0-neo plasmid (hereinafter referred to as "pcDNA3.0-neo brain CSCs ^CD133+"). Both pcDNA 3.0-Axl brain CSCs ^CD133+ and pcDNA3.0-neo brain CSCs ^CD133+ were observed and photographed with the use of a microscope. Then, proteins were extracted from both cells to conduct Western blotting to determine the expressions of Axl protein and β-actin in the BP-treated brain CSCs ^CD133+. Yet another, pcDNA 3.0-Axl brain CSCs ^CD133+ and pcDNA3.0-neo brain CSCs ^CD133+ were treated with different concentrations (0, 25, 50, 62.5, 75 and 100 µg/ml) of BP for 24 hours. At the same time, the phenomenon of pcDNA 3.0-Axl brain CSCs ^CD133+ and pcDNA3.0-neo brain CSCs ^CD133+ migrate to the wound was observed and photographed at 0 and 24 hours during the BP treatment.

Assay [2] relates to CD133, Sox-2 and Oct4 proteins. The assay can be described thus: Western blotting of stemness-maintenance markers in brain CSCs CD133+. As to conditions: BP 0, 12.5, 25, 50, 62.5 and 75 µg/ml for 24 hours; Figures 4 and 5. Here is the method:
It has been known that CD44, CD133, Sox-2 (sex-determining region Y protein (SRY)-related high-mobility group box 2) and Oct4 (octamerbinding transcription factor 4) proteins all are stemness-maintenance markers of cancer stem cells and participate in the regulation of the self-renewal and differentiation of cancer stem cells. Brain CSCs ^CD133+ was treated with different concentrations (0, 12.5, 25, 50, 62.5 and 75 µg/ml) of BP for 24 hours, and then, proteins were extracted from the cells to conduct Western blotting to determine the expressions of CD133, Sox-2 and Oct4 proteins in the BP-treated brain CSCs ^CD133+. In addition, MiaPaCa-2 cell line (i.e., a cell line of pancreatic cancer cells) was treated with different concentrations (0, 12.5, 25, and 50 µg/ml) of BP for 24 hours, and then, proteins were extracted from the cells to conduct Western blotting to determine the expressions of Sox-2, CD133 and CD44 proteins in the BP-treated MiaPaCa-2 cells. […]

For assay [3], the system named is malignant glioma DBTRG cells. Kind of assay: MTT cell viability assay on malignant glioma DBTRG cells. The conditions noted are these: 24-hour group. The procedure: Thereafter, a cell viability assay, MTT assay, was utilized to analyze the viabilities of brain CSCs ^CD133+ and malignant glioma DBTRG cells. […] The results are shown in Figure 1A and Figure 1B for 24-hour group and 48-hour group (i.e., the treatment for 24 hours and 48 hours) and in Table 1 for 24-hour group.
In general terms: Formazan colour is commonly taken as a measure of viable cells.

Assay [4] relates to HNC-TIC-like oral stem cells (ALDH1^+CD44^+-1 cell line or ALDH1^+CD44^+-2 cell line). Kind of assay: Transwell invasion assay with HNC-TIC-like oral stem cells. As to conditions: BP 0, 25 and 50 µg/ml for 24 hours. An excerpt:
In this research, the effect of BP on inhibiting the migration and invasion of cancer stem cells was further investigated by a transwell invasion assay system (i.e., Transwell^○,R system, purchased from Corning, UK) with a polycarbonate filter membrane of 8-µm pore size (purchased from Coming, UK). First, the polycarbonate filter membrane was coated with Matrigel™ (purchased from BD Pharmingen, USA), and then, the coated membrane was placed in the lower chamber of the transwell invasion assay system. Then, the lower chamber was filled with 10% serum-containing medium. On the other hand, HNC-TIC-like oral stem cells (i.e., ALDH1^+CD44^+-1 cell line or ALDH1^+CD44^+-2 cell line) were treated with different concentrations (0, 25 and 50 µg/ml) of BP for 24 hours, and then, the treated cells of each group was cultured in the upper chamber which was filled with serum-free medium, at a cell density of 1×10^5 cells/100 µl for 24 hours. […] The invasion cancer cells of each group were counted and photographed over five visual fields of the membrane with the use of a 100-fold magnification under a microscope. The relative invasion ability of cells of each experimental group was calculated based on the result of the group treated with 0 µg/ml of BP.

Assay [5] has as its system E-cadherin, TGFβ-1 and Slug. Kind of assay: Western blotting of EMT-related proteins in brain CSCs CD133+. The conditions noted are these: BP 0, 12.5, 25, 50, 62.5 and 75 µg/ml for 24 hours, Figure 12. Here is the method: In has been known that at the start of the epithelial-mesenchymal transition (EMT) of cancer stem cells, the expression of E-cadherin would reduce and the aggregation force between cancer stem cells would decrease, so that the cancer stem cells would gain great invasion and migration capacity and depart from the primary tumor, and thus, could metastasize. Brain CSCs ^CD133+ was treated with different concentrations (0, 12.5, 25, 50, 62.5 and 75 µg/ml) of BP for 24 hours, and then, proteins were extracted from the cells to conduct Western blotting to determine the expressions of E-cadherin, TGFβ-1 (with an ability to induce EMT) and Slug (i.e., a member of Snail family transcriptional repressors with a property of promoting the metastasis of cancer cells) proteins in the BP-treated brain CSCs ^CD133+.
Background: Immunoblotting shows a protein as a band on a membrane.

Values joined by “and” are separate entries in the source; they are usually repeats but may differ in a detail not shown here. Identical values can stand only once.

The IC50 is the concentration at which inhibition is half-maximal. A high value points to weaker potency.

Take `CCCC=C1OC(=O)c2ccccc21` [BP, butylidenephthalide]: the “number of pcDNA3.0-neo brain CSCs ^CD133+ migrated to the wound” value in assay [1] is “significantly decreased”. The “expressions of CD133, Sox-2 and Oct4 proteins in brain CSCs ^CD133+” value in assay [2] is “significantly decreased”. Further, the IC50 in assay [3] is 400 µM and 75.3 µg/mL. Besides, in assay [4] (Figure 11A), the “number of cells on the polycarbonate filter membrane” value was “significantly reduced”. Moreover, in assay [4] (relative to 0 µg/ml group, Figure 11B), the “relative invasion ability of cancer stem cells” value is listed as “decreased along with the increment in the concentration of BP”. In assay [5], the “expression of E-cadherin protein” value was “significantly increased”; the “expressions of TGFβ-1 and Slug proteins” value is on record as “significantly decreased”.

Values taken from patent publication EP3338775B1, “USE OF BUTYLIDENEPHTHALIDE” (Everfront Biotech Inc., priority 2015, dated 2017).
